This is an account of results in patent US11731977B2, “SGC stimulators” (Cyclerion Therapeutics, Inc., priority 2016, dated 2023).

The EC50 is the concentration needed to bring the measured effect to its halfway point.

One assay relates to rats. In words: Post-operative pain: Brennan model, electronic Von Frey test (Example 13). The conditions noted are these: Compound I-1 p.o. 10 mg/kg, 120 minutes after treatment. It counts as in vivo, rat. The text has this:
Surgery: Surgery was done under gas anesthesia (2.5% isoflurane/3 L/min). For all rats, the plantar aspect of the left hind paw was exposed and a 1 cm longitudinal incision was made using a surgical blade, through the skin and fascia of the plantar aspect of the foot, starting 0.5 cm from the proximal edge of the heel and extending toward the toes. The plantaris muscle was elevated and incised longitudinally whereas the insertions remained intact. After hemostasis with gentle pressure, the skin was stitched up with two sutures. After surgery, animals recovered in their cages.
Electronic Von Frey Test: Tactile allodynia was assessed using the electronic Von Frey test 24 h after surgery. […] The apparatus exerted a steady force on the hind paws. […] Each reaction threshold measurement was repeated three times for both hind paws with intervals of approximately 2 to 3 mins.

The target in another assay is T1, sGC enzyme (Homo sapiens, UniProt Q02108+Q02153).
T1 construct: sGC enzyme activity values in HEK cells, determined by the GloSensor assay; host or cells: HEK293 cells stably expressing GloSensor 40F cGMP biosensor
T1 sequence (Q02153 1-619): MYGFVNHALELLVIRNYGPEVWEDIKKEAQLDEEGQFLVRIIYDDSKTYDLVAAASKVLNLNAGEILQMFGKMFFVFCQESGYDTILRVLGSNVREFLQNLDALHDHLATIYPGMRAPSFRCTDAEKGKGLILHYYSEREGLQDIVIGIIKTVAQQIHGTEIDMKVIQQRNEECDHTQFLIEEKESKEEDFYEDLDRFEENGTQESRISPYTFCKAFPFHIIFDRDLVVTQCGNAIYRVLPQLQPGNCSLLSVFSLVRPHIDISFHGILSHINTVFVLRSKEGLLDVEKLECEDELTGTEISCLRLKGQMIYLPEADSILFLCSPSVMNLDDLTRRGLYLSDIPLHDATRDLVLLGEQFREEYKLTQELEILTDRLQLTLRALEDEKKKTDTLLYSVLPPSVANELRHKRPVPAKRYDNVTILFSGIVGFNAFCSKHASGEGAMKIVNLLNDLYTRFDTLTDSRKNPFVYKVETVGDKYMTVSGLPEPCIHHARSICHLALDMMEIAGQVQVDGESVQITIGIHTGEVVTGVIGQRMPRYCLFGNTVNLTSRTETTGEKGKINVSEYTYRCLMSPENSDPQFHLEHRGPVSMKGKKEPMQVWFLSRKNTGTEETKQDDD
T1 sequence (Q02108 1-690): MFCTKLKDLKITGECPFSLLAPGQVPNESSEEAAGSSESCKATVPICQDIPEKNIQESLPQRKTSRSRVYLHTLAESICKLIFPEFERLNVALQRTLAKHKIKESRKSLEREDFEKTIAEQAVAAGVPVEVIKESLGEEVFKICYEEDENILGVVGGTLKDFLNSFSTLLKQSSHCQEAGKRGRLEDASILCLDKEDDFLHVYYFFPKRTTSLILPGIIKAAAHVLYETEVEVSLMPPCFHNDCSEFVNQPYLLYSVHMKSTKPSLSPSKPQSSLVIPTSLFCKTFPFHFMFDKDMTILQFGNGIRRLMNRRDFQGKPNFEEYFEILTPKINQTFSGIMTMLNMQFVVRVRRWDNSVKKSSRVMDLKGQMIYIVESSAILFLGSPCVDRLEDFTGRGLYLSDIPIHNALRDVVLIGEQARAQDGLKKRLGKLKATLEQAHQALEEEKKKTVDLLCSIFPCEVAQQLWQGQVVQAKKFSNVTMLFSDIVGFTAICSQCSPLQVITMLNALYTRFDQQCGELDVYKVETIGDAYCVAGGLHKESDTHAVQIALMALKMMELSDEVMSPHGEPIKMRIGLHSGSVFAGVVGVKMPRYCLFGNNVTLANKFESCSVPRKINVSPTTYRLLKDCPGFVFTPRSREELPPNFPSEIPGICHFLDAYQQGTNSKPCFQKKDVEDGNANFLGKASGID
Nature of the assay: cGMP GloSensor cell-based assay, 384-well format (Example 2a). Conditions: HEK293 GloSensor 40F cGMP cells; 10 μM DETA-NONOate; 50% of high control (30 μM Compound Y); read-out: Abs EC50. The method, boiled down: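 HEK293 cells expressing GloSensor 40F cGMP biosensor, pre-equilibrated with GloSensor substrate 90 min at 25 °C, then given compound (final 0.029–30000 nM) plus 10 μM DETA-NONOate; luminescence read after 55 min at room temperature. Normalized to 1% DMSO (low) and 30 μM Compound Y (high); Abs EC50 from 4-parameter fit, n=2, geometric mean.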

Structures are written as SMILES.

Consider `Fc1ccccc1Cc1nc(-c2nc(C(F)(F)F)n[nH]2)cn2ccnc12` [Compound I-1, 8-(2-fluorobenzyl)-6-(3-(trifluoromethyl)-1H-1,2,4-triazol-5-yl)imidazo[1,2-a]pyrazine], for which, in the assay with rats, the “% of activity vs. vehicle” value is recorded as 31%. In addition, the EC50 at sGC enzyme is at most 100 nM.

For the molecule `Fc1cccc(Cc2nc(-c3nc(C(F)(F)F)n[nH]3)cn3ccnc23)c1` [Compound I-2, 8-(3-Fluorobenzyl)-6-(3-(trifluoromethyl)-1H-1,2,4-triazol-5-yl)imidazo[1,2-a]pyrazine], the EC50 on sGC enzyme is at most 100 nM.

Regarding `Fc1cccc(Cc2nc(-c3nc(C(F)F)n[nH]3)cn3ccnc23)c1` [Compound I-3, 6-(3-(Difluoromethyl)-1H-1,2,4-triazol-5-yl)-8-(3-fluorobenzyl)imidazo[1,2-a]pyrazine], on sGC enzyme, the EC50 was 100 to 1000 nM.

In the case of `Fc1cccc(Cc2nc(-c3nc(C(F)(F)F)n[nH]3)cn3ccnc23)c1F` [Compound I-10, 8-(2,3-Difluorobenzyl)-6-(3-(trifluoromethyl)-1H-1,2,4-triazol-5-yl)imidazo[1,2-a]pyrazine], the concentration giving a half-maximal response (EC50) on sGC enzyme was at most 100 nM.

`Fc1cccc(Cc2nc(-c3nc(C(F)F)n[nH]3)cn3ccnc23)c1F` [Compound I-11, 8-(2,3-Difluorobenzyl)-6-(3-(difluoromethyl)-1H-1,2,4-triazol-5-yl)imidazo[1,2-a]pyrazine]: on sGC enzyme, the 50% effective concentration (EC50) was 100 to 1000 nM.

For `Fc1ccccc1Cc1nc(-c2nc(C(F)F)n[nH]2)cn2ccnc12` [Compound I-14, 8-(2-Fluorobenzyl)-6-(3-(difluoromethyl)-1H-1,2,4-triazol-5-yl)imidazo[1,2-a]pyrazine], the EC50 at sGC enzyme is at most 100 nM.

With `Fc1ccccc1Cc1nc(-c2nc(C(F)(F)F)n[nH]2)cn2ncnc12` [Compound I-16, 8-(2-Fluorobenzyl)-6-(3-(trifluoromethyl)-1H-1,2,4-triazol-5-yl)-[1,2,4]triazolo[1,5-a]pyrazine], the concentration for a half-maximal effect (EC50) at sGC enzyme was at most 100 nM.
